Reference: US5165931A, “Peptifluorin and neopeptifluorin” (E. R. Squibb & Sons, Inc., priority 1991, dated 1992)

Key:
mevalonate kinase = test: inhibition of mevalonate kinase from yeast; format: biochemical
bacteria = test: antibacterial activity (general statement); format: cell-based
Procedure: (§1) The following methodology was used to determine the minimum inhibitory concentration (hereinafter referred to as MIC) of the compound of this invention against bacteria. The test organisms were grown in 20 ml of Antibiotic Assay Broth (Difco) by inoculating the broth (in tubes) with a loopful of the organism from a BHI (Difco) agar slant. The inoculated tubes were incubated at 37° C. for 18 to 24 hours. These cultures were assumed to contain 10^9 colony forming units (CFU) per ml. The cultures were diluted 1:100 to give a final inoculum level of 10^7 CFU; dilutions were made with Yeast Beef Broth (Difco). The test compound was dissolved in an appropriate diluent at a concentration of 1,000 μg/ml. Two-fold dilutions were made in Yeast Beef Broth (Difco), resulting in
(§2) a range from 1000 μg/ml to 0.5 μg/ml. A 1.5 ml portion of each dilution was placed into individual petri dishes to which 13.5 ml of K-10 agar was added. The composition of K-10 agar is:
The final drug concentration in the agar ranged from 100 μg/ml to 0.05 μg/ml. Organism growth control plates containing agar only were prepared and inoculated before and after the test plates. […]
The plates were incubated at 37° C. for 18 hours and the MICs determined. […]

Enterobacter cloacae = test: agar dilution MIC assay, bacteria; format: cell-based; conditions: strain SC 8236; K-10 agar, 37° C., 18 hours
Procedure: as §1, §2
(§3) The medium was sterilized at 121° C. for 15 minutes at 15 pounds psi.
(§4) The final drug concentration in the agar ranged from 100 μg/ml to 0.05 μg/ml. Organism growth control plates containing agar only were prepared and inoculated before and after the test plates. The organisms were applied to the agar surface of each plate with a Denly Multipoint Inoculator (which delivers approximately 0.001 ml of each inoculum) resulting in a final inoculum of 10^4 CFU on the agar surface.
(§5) The plates were incubated at 37° C. for 18 hours and the MICs determined. The MIC is the lowest concentration of compound inhibiting growth of the organism.
(§6) The results of the agar dilution assays with bacteria are: […]

Salmonella typhosa = test: agar dilution MIC assay, bacteria; format: cell-based; conditions: strain SC 1195; K-10 agar, 37° C., 18 hours
Procedure: as §1, §2, §3, §4, §5, §6

Shigella sonnei = test: agar dilution MIC assay, bacteria; format: cell-based; conditions: strain SC 8449; K-10 agar, 37° C., 18 hours
Procedure: as §1, §2, §3, §4, §5, §6

Staphylococcus aureus = test: agar dilution MIC assay, bacteria; format: cell-based; conditions: K-10 agar, 37° C., 18 hours
Procedure: as §1, §2, §3, §4, §5, §6

Streptococcus agalactiae = test: agar dilution MIC assay, bacteria; format: cell-based; conditions: strain SC 14,008; K-10 agar, 37° C., 18 hours
Procedure: as §1, §2, §3, §4, §5, §6

Klebsiella pneumoniae = test: agar dilution MIC assay, bacteria; format: cell-based; conditions: K-10 agar, 37° C., 18 hours
Procedure: as §1, §2, §3, §4, §5, §6

Streptococcus faecalis = test: agar dilution MIC assay, bacteria; format: cell-based; conditions: strain SC 9011; K-10 agar, 37° C., 18 hours
Procedure: as §1, §2, §3, §4, §5, §6

Micrococcus luteus = test: agar dilution MIC assay, bacteria; format: cell-based; conditions: strain SC 2495; K-10 agar, 37° C., 18 hours
Procedure: as §1, §2, §3, §4, §5, §6

Escherichia coli = test: agar dilution MIC assay, bacteria; format: cell-based; conditions: K-10 agar, 37° C., 18 hours
Procedure: as §1, §2, §3, §4, §5, §6

Candida glabrata = test: agar dilution MIC assay, yeasts; format: cell-based; conditions: strain SC 11,267; 37° C., 36-48 hours
Procedure: as §1, §2, §4, §5
(§7) The methodology described above was modified in the assay for activity against yeasts. Fresh F-4 slants of the test organisms were obtained from frozen vials (-70° C.). The cultures were inoculated into tubes of F-4 broth and incubated at 37° C. for 18 to 24 hours, at which time the average cell count was assumed to be 5×10^7 CFU per ml. These were diluted 1:50 with fresh F-4 broth to give an inoculum level of 1×10^6 CFU per mL. The organisms were then dispensed into a sterile template (0.8 ml per well) and delivered onto the surface of each plate containing test compound as described above with a Denly Multipoint Inoculator, resulting in a final inoculum of 10^3 CFU on the agar surface.
(§8) The composition of the F-4 broth is:
(§9) The medium was sterilized at 121° C. for 15 minutes at 15 psi.
(§10) F-4 agar has the same composition as the broth but with the addition of 15 g agar per liter.
(§11) The results of the yeast, agar dilution assays (determined after incubation at 37° C. for 36-48 hours) are: […]

Candida krusei = test: agar dilution MIC assay, yeasts; format: cell-based; conditions: strain SC 2967; 37° C., 36-48 hours
Procedure: as §1, §2, §4, §5, §7, §8, §9, §10, §11

Candida tropicalis = test: agar dilution MIC assay, yeasts; format: cell-based; conditions: 37° C., 36-48 hours
Procedure: as §1, §2, §4, §5, §7, §8, §9, §10, §11

Candida albicans = test: agar dilution MIC assay, yeasts; format: cell-based; conditions: 37° C., 36-48 hours
Procedure: as §1, §2, §4, §5, §7, §8, §9, §10, §11

Saccharomyces cerevisiae = test: agar dilution MIC assay, yeasts; format: cell-based; conditions: 37° C., 36-48 hours
Procedure: as §1, §2, §4, §5, §7, §8, §9, §10, §11

yeasts = test: antifungal activity (general statement); format: cell-based
Procedure: as §7

| Substance | inhibiting mevalonate kinase from yeast (mevalonate kinase) | antibacterial activity (bacteria) | MIC (Enterobacter cloacae) | MIC (Salmonella typhosa) | MIC (Shigella sonnei) | MIC (Staphylococcus aureus; strain SC 1276) | MIC (Staphylococcus aureus; strain SC 2399) | MIC (Staphylococcus aureus; strain SC 2400) | MIC (Klebsiella pneumoniae; strain SC 9527) | MIC (Klebsiella pneumoniae; strain SC 10,440) | MIC (Streptococcus faecalis) | MIC (Micrococcus luteus) | MIC (Escherichia coli; strain SC 8294) | MIC (Escherichia coli; strain SC 10,857) | MIC (Escherichia coli; strain SC 10,896) | MIC (Candida glabrata) | MIC (Candida krusei) | MIC (Candida tropicalis; strain SC 8159) | MIC (Candida tropicalis; strain SC 9861) | MIC (Candida albicans; strain SC 5314) | also measured |
| --- | --- | --- | --- | --- | --- | --- | --- | --- | --- | --- | --- | --- | --- | --- | --- | --- | --- | --- | --- | --- | --- |
| neopeptifluorin | moderately active | broad spectrum antibacterial activity | 12.5 µg/mL | 100 µg/mL | 25 µg/mL | 3.1 µg/mL | 6.3 µg/mL | 6.3 µg/mL | > 100 µg/mL | 25.0 µg/mL | 6.3 µg/mL | 6.3 µg/mL | 50.0 µg/mL | 12.5 µg/mL | 12.5 µg/mL | 25.0 µg/mL | 100 µg/mL | 6.3 µg/mL | 3.1 µg/mL | 6.3 µg/mL | MIC (Streptococcus agalactiae): 6.3 µg/mL; MIC (Candida albicans; strain SC 9177): 25.0 µg/mL; MIC (Candida albicans; strain SC 11,422): 12.5 µg/mL; MIC (Saccharomyces cerevisiae; strain SC 1600): 6.3 µg/mL; MIC (Saccharomyces cerevisiae; strain SC 12,955): 12.5 µg/mL; MIC (Saccharomyces cerevisiae; strain SGY 1139): 1.6 µg/mL; antifungal activity (yeasts): antifungal activity |
| peptifluorin | moderately active | broad spectrum antibacterial activity | 25.0 µg/mL | > 100.0 µg/mL | 25.0 µg/mL | 6.3 µg/mL | 6.3 µg/mL | 6.3 µg/mL | > 100.0 µg/mL | 50.0 µg/mL | 6.3 µg/mL | 6.3 µg/mL | > 100.0 µg/mL | 50.0 µg/mL | 12.5 µg/mL | 12.5 µg/mL | 100 µg/mL | 12.5 µg/mL | 3.1 µg/mL | 12.5 µg/mL | MIC (Candida albicans; strain SC 9177): 25.0 µg/mL; MIC (Candida albicans; strain SC 11,422): 12.5 µg/mL; MIC (Saccharomyces cerevisiae; strain SC 1600): 12.5 µg/mL; MIC (Saccharomyces cerevisiae; strain SC 12,955): 25.0 µg/mL; MIC (Saccharomyces cerevisiae; strain SGY 1139): 3.1 µg/mL; antifungal activity (yeasts): antifungal activity |
